Assay results published in US8507498B2, “4, 6-disubstituted aminopyrimidine derivatives as inhibitors of protein kinases” (Ingenium Pharmaceuticals GmbH, priority 2007, dated 2013).
Entries after “also recorded” stand apart in the source; their conditions may differ.

Assays:
[1] = biological target: T1, CDK2/CycA (Homo sapiens, UniProt P24941); assay: General kinase assay (Example 80); format: biochemical; conditions: ATP 1 μM
T1 construct: purchased ProQinase (Freiburg, Germany)
Protocol: (§1) Kinase assays determining CDK2/CyclinA and CDK5/p35 activity were performed as described by the manufacturer's recommendations (ProQinase (Freiburg, Germany) for CDK2/CyclinA and Upstate for CDK5/p35).
(§2) The inhibitory effect of compounds according to the present invention on the activity of protein kinases can be measured according to the following protocol: • Reaction Volume: 40 μl • Reaction Time: 60 min • Reaction Temperature: room temperature • Assay Plate: 96 well U bottom plate (Greiner, 650161) • MultiScreen-PH Plate: 96 well MAPH Filter Plates (Millipore, MAPHNOB50) • Filter Washing Solution: 0.75% H3PO4 • Scintillation Liquid Supermix Liquid Scintillator (PerkinElmer, 1200-439) Controls: • Negative Control (C−): 100 mM EDTA (Ethylenediaminetetraacetic acid), no Inhibitor • Positive Control (C+): no Inhibitor Reaction Buffer: • 20 mM Tris (Tris(hydroxymethyl)aminomethane hydrochloride), pH 7.5 • 10 mM MgCl2 • 1 mM DTT Final Assay Concentrations: • Kinase: Use kinase conc. yielding 10% ATP turn over. • ATP: 1 μM • Adenosine 5′-[-^33P]triphosphate:12.5 μCi/ml (Amersham Biosciences, BF1000) • Substrate: Myelin Basic Protein 10 μM (Invitrogen, 13228-010) Pipetting Sequence: • 1) Add 10 μl 4 fold concentrated Substrate+4 fold concentrated ATP in […] concentrated Reaction Buffer to each well of Assay Plate • 2) Add 10 μl 4 fold concentrated inhibitor in 4% DMSO in H2O to each well except to C− and C+wells • 3) Add 10 μl 4% DMSO in H2O to C− and C+wells • 4) Add 10 μl 500 mM EDTA in H2O to C− wells • 5) Add 10 μl 50 μCi/ml Adenosine 5′-[-^33P]triphosphate in H2O to each well • 6) Add 10 μl 4 fold concentrated kinase in Reaction Buffer to each well • 7) Incubate 1 hr at room temperature • 8) Add 10 μl 50 mM EDTA in H2O to each well except to C− wells • 9) Prepare MAPH plates by adding 200 μl 0.75% H3PO4 to each well • 10) Exhaust 0.75% H3PO4 using Millipore vacuum station • 11) Add 60 μl 0.75% H3PO4 to each well of MAPH Filter Plate • 12) Transfer 30 μl sample per well from Assay Plate to corresponding well of MAPH Filter Plate • 13) Incubate 30 min at room temperature • 14) Wash each well of MAPH Filter Plates 3× with 200 μl 0.75% H3PO4 using Millipore vacuum station. • 15) Add 20 μl Scintillation Liquid to each well of MAPH Filter Plate • 16) Seal MAPH Filter Plate • 17) Store MAPH Filter Plate 30 min in darkness • 18) Quantify radioactivity Results:
(§3) IC50s were calculated for each kinase based on serial dilutions.

[2] = biological target: T2, CDK5/p35 (Homo sapiens, UniProt Q00535); assay: General kinase assay (Example 80); format: biochemical; conditions: ATP 1 μM
T2 construct: purchased Upstate
Protocol: as §1, §2, §3

[3] = biological target: CDK1/CycB (Homo sapiens, UniProt P06493); assay: General kinase assay (Example 80); format: biochemical; conditions: ATP 1 μM
Protocol: as §2, §3

[4] = test system: HCT116; assay: Growth assay using Alamar Blue; format: cell-based; conditions: Homo sapiens, HCT-116, read-out: IC50 against cell line HCT116
Protocol: (§4) Cells were seeded in 384-well plates (white, Greiner: 781080) at a density of […] cells per well in medium (RPMI+10% FCS).
(§5) Cells were incubated in 25 μl medium/well and were grown over night at 37° C., 6% CO2. On the following day compounds were added in DMSO in serial fold dilutions in fresh medium. Negative control wells were incubated without cells. Positive control wells were incubated with cells but without inhibitors (DMSO only). These wells served as data points to determine relative growth (given in % of the DMSO control [=100%]). The cell number was determined by addition of 5 μL Alamar Blue™ (Biosource DAL1100) to each well. Fluorescence was measures with an Analyst GT machine (Molecular Devices) at an excitation wavelength of 560 nm and an emission wavelength of 590 nm.
(§6) The following cell lines were used: A2780 (ECACC order number 93112519; human ovarian carcinoma; Semin Oncol (1984) 11:285; Cancer Res (1987) 47:414), B16F1 (ATCC order number CRL-6323; melanoma; Nat. New Biol. 242: 148-149, 1973); HCT116 (ATCC order number CCL-247; Colorectal carcinoma; Cancer Res (1981) 41:1751; Cancer (1995) 76:201), HT29 (ATTC order number HTB-38; colorectal adenocarcinoma; J. Biol. Chem. 271: 9490-9496, 1996) HepG2 (ATCC order number HB-8065; hepatocellular carcinoma; J. Biol. Chem. 271: 10073-10078, 1996), J774 (ATCC order number TIB-67; reticulum cell sarcoma; J. Biol. Chem. 271: 18431-18436, 1996); MCF7 (ATCC order number HTB-22; Breast carcinoma; J Natl Cancer Inst (1973) 51:1409; Cancer Res (1993) 53:5193), PM1 (obtainable from the National Institute of Allergy and Infectious Diseases; Division of AIDS via the NIH AIDS Research & Reference Reagent Program; Lusso P et al (1995), J Virol 69: 3712-3720) and U373-MAGI-CCR5 (obtainable from the National Institute of Allergy and Infectious Diseases; Division of AIDS via the NIH AIDS Research & Reference Reagent Program; Kensinger R D et al (2004), Antimicrob Agents Chemother 48: 1614-1623).
(§7) IC50s were calculated for each cell line based on serial dilutions.

[5] = test system: U373-MAGI-CCR5E; assay: Growth assay using Alamar Blue; format: cell-based; conditions: read-out: IC50 against cell line U373-MAGI-CCR5E
Protocol: as §4, §5, §6, §7

[6] = biological target: T3, CDK9/CycT1 (Homo sapiens, UniProt P50750); assay: General kinase assay (Example 80); format: biochemical; conditions: ATP 1 μM
T3 construct: made in house; host or cells: HEK293 cells (ATCC CRL-1573), recombinant adenovirus
Excerpt: Both cDNA fragments were cloned by PCR into pDONR201 vectors using the gateway recombination system (Invitrogen) according to the manufacturer's recommendations. The fragments were subcloned into a gateway-adapted shuttle vector (pPM7) for production of recombinant adenovirus. All plasmids were verified by restriction digests and sequencing analysis.
Expression and purification of CDK9/Cyclin T1 proteins was in principle performed as described by Cotten et al. (M. Cotten et al., Nucleic acids research, 2003, 31(28), 128).
Kinase assays using CDK9/Cyclin T1 were performed in principle as described by Cotten et al. (M. Cotten et al., Nucleic acids research, 2003, 31(28), 128).
as §3

[7] = biological target: CDK4/CycD1 (Homo sapiens, UniProt P11802); assay: General kinase assay (Example 80); format: biochemical; conditions: ATP 1 μM
Protocol: as §2, §3

[8] = biological target: CDK6/CycD3 (Homo sapiens, UniProt Q00534); assay: General kinase assay (Example 80); format: biochemical; conditions: ATP 1 μM
Protocol: as §2, §3

[9] = test system: HepG2; assay: Growth assay using Alamar Blue; format: cell-based; conditions: Homo sapiens, read-out: IC50 against cell line HepG2
Protocol: as §4, §5, §6, §7

[10] = test system: PM1; assay: Growth assay using Alamar Blue; format: cell-based; conditions: read-out: IC50 against cell line PM1
Protocol: as §4, §5, §6, §7

[11] = test system: SNI mice (mechanical allodynia); assay: Spared nerve injury (SNI) model, von Frey assay; format: in vivo; conditions: 30 mg/kg per os 30 min prior to measurement, day 107 post SNI, vs vehicle
Protocol: Wildtype mice (strain C3HeB/FeJ) (age, sex and weight matched) were anesthetized with Hypnorm (0.315 mg/ml fentanyl citrate+10 mg/ml fluanisone; Janssen)/Hypnovel (5 mg/ml midazolam; Roche Applied Sciences)/water at a ratio of 1:1:2 at 4 μl/g prior to surgical preparation.
Subsequently, an incision was made under aseptic precautions in the ipsi-lateral right hind leg of all mice just above the level of the knee, exposing the three terminal branches of the sciatic nerve: the common peroneal, tibial, and sural nerves. The common peroneal and tibial nerves were ligated tightly with 7/0 silk and sectioned distal to the ligation removing ≈2 mm of distal nerve stump. The sural branch remained untouched during the procedure (denoted herein “SNI ipsi”). The overlying muscle and skin was sutured, and the animals were allowed to recover and to permit wound healing. […]
Injection of inhibitor or vehicle, and subsequent measurements of paw withdrawal threshold to mechanical stimulation in von Frey assays were performed at day 107 post SNI. Reflex nociceptive responses to mechanical stimulation were measured in a von Frey assay 30 min after each injection. […]
Mechanical thresholds of SNI mice were quantified using the up-down method based on Chaplan et al. (1994) and Malmberg and Basbaum (1998). […]

T3 sequence (P50750 whole entry, species assumed): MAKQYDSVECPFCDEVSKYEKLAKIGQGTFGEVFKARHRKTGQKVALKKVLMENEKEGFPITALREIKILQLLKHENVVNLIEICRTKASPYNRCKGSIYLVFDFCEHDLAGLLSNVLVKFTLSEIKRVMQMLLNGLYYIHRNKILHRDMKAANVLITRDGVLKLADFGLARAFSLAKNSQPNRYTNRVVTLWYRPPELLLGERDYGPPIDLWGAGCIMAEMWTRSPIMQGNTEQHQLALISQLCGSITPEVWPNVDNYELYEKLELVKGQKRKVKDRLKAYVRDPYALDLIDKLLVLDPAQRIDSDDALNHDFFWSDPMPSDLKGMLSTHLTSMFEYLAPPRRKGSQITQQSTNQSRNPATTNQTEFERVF
T3 sequence (O60563 whole entry partner, species assumed): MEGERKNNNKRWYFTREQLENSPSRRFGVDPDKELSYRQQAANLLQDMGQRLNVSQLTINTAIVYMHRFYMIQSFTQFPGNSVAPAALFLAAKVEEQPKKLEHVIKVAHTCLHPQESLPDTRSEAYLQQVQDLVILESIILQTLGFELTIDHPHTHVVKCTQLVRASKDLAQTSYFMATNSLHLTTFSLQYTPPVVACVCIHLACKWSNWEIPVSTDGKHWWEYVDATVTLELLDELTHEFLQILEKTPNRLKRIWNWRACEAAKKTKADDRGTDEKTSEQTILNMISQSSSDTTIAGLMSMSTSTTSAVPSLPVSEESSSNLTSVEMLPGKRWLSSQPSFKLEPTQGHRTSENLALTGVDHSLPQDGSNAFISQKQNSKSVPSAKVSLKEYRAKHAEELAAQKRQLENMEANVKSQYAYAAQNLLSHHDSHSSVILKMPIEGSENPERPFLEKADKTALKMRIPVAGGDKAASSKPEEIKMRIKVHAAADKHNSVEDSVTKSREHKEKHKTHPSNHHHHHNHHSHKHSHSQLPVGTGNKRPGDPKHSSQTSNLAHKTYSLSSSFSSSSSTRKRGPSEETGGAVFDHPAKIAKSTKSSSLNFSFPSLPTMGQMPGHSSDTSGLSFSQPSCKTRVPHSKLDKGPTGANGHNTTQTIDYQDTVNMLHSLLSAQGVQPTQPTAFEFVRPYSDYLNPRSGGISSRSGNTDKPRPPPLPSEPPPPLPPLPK
T2 sequence (Q00535 whole entry): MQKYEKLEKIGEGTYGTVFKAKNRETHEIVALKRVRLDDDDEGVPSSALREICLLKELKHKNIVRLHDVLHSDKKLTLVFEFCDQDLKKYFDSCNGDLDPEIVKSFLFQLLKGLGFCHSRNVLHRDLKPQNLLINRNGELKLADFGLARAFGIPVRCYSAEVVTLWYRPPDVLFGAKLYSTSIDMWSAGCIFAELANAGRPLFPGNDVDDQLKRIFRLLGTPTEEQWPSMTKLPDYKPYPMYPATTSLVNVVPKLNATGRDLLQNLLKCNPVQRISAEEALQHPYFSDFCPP
T2 sequence (Q15078 whole entry partner): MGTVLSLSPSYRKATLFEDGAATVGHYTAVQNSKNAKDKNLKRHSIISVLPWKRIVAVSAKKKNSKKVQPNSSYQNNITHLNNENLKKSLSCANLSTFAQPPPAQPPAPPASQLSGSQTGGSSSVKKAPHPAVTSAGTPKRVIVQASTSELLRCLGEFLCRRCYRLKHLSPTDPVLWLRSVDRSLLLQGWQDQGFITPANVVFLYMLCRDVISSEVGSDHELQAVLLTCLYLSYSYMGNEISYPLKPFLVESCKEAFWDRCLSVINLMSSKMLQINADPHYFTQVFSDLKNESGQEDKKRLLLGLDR
Chain of CDK1/CycB (P06493 whole entry, species assumed): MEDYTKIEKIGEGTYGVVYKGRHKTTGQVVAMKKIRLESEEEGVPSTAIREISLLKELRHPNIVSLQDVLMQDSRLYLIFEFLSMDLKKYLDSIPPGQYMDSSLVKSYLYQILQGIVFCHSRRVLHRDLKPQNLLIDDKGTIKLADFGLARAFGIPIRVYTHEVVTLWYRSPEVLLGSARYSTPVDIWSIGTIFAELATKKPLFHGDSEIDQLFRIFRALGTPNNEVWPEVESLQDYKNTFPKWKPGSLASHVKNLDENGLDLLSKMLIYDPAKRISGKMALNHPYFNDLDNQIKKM
Chain of CDK1/CycB (P14635 whole entry partner, species assumed): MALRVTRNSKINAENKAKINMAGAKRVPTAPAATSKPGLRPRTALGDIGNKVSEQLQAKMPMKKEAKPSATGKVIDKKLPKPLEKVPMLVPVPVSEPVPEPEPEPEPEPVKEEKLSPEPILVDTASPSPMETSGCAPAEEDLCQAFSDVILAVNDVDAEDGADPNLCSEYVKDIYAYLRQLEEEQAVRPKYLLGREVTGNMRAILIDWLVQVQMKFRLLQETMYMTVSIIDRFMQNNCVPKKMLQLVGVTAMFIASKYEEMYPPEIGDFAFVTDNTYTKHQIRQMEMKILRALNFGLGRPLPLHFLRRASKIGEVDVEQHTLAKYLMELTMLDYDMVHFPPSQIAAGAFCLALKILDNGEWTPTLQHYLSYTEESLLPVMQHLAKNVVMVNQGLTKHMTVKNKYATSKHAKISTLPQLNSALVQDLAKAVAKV
Chain of CDK4/CycD1 (P11802 whole entry, species assumed): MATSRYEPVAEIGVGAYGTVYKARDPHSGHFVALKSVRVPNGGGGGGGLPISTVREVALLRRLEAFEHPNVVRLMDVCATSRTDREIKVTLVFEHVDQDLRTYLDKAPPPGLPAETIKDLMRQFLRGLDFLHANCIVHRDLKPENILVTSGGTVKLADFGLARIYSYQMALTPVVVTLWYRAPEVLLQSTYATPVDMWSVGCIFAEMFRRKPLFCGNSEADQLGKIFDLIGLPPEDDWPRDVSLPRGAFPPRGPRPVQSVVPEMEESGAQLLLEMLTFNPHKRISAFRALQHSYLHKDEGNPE
Chain of CDK4/CycD1 (P24385 whole entry partner, species assumed): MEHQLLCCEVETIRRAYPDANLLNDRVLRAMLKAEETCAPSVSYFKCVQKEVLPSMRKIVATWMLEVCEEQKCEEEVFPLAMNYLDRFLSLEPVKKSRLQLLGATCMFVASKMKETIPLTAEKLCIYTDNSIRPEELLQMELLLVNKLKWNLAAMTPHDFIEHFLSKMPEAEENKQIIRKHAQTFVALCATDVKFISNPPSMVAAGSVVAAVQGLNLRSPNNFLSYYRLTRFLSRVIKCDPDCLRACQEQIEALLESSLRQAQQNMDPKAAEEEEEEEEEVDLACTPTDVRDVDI
Chain of CDK6/CycD3 (Q00534 whole entry, species assumed): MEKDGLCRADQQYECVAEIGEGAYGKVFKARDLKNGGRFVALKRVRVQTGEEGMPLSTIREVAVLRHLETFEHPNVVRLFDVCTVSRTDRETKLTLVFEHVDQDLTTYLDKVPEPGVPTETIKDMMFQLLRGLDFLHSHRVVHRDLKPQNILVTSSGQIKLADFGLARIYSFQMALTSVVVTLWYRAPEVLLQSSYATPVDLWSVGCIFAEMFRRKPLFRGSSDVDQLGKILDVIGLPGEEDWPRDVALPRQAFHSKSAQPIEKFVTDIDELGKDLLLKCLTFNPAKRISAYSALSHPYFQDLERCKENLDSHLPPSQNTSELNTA
Chain of CDK6/CycD3 (P30281 whole entry partner, species assumed): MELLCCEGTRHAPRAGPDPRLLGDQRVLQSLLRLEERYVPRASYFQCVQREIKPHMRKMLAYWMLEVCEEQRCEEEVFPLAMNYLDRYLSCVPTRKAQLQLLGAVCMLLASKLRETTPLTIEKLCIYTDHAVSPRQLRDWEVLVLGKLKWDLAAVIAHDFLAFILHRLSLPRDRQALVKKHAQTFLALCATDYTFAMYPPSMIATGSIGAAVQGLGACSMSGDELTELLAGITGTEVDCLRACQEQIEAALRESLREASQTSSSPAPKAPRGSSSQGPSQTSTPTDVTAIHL

| SMILES | IC50 [1] [µM] | IC50 [2] [µM] | melting point [°C] | IC50 [3] [µM] | IC50 [4] [µM] | IC50 [5] [µM] | IC50 [6] [µM] | IC50 [7] [µM] | IC50 [8] [µM] | IC50 [9] [µM] | IC50 [10] [µM] | paw withdrawal threshold to mechanical stimulation (von Frey), mechanical allodynia [11] |
| --- | --- | --- | --- | --- | --- | --- | --- | --- | --- | --- | --- | --- |
| COc1ccccc1-c1cc(Nc2cccc(CS(=O)(=O)N(C)C)c2)ncn1 [Compound 20, C-{3-[6-(2-methoxy-phenyl)-pyrimidin-4-ylamino]-phenyl}-N,N-dimethyl-methanesulfonamide] | < 2 | < 5 | 187.5 to 188.8 | < 5 | < 5 | < 10 | < 0.5 | – | – | – | – | – |
| COCCNS(=O)(=O)Cc1cccc(Nc2cc(-c3ccccc3OC)ncn2)c1 [Compound 86, N-(2-methoxy-ethyl)-C-{3-[6-(2-methoxy-phenyl)-pyrimidin-4-ylamino]-phenyl}-methanesulfonamide] | < 10 | < 10 | – | < 10 | < 5 | – | < 0.5 | > 10 | – | – | – | – |
| CNS(=O)(=O)Cc1cccc(Nc2cc(-c3ccccc3OC)ncn2)c1 [Compound 49, C-{3-[6-(2-methoxy-phenyl)-pyrimidin-4-ylamino]-phenyl}-N-methyl-methanesulfonamide] | < 2 | < 5 | – | < 5 | < 2 | – | < 0.1 | < 10 | < 10 | > 10 | < 5 | – |
| CCOc1ccccc1-c1cc(Nc2cccc(CS(=O)(=O)NC)c2)ncn1 [Compound 43, C-{3-[6-(2-Ethoxy-phenyl)-pyrimidin-4-ylamino]-phenyl}-N-methyl-methanesulfonamide] | – | – | – | – | – | – | – | – | – | – | – | hypoalgesic effect; also recorded: significant increase of threshold values |
